Data: patent publication EP4076430B1, “A METHOD OF TREATING NONALCOHOLIC STEATOHEPATITIS” (Vector Vitale IP LLC, priority 2019, dated 2021)
Values joined by “and” are separate entries in the source; they are usually repeats but may differ in a detail not shown here. Equal entries are not always repeated. “Also recorded” adds a separate entry of the source. One block for each molecule: values may come before it.

Assays:
Glucose tolerance test = assay type: in vivo, rats; design: Glucose, 0 min (1 h after effector administration): unit not given here; settings: for glucose levels in the glucose tolerance test compared with the control group: 5 mg/kg in 2 ml, glucose 3 g/kg
Excerpt: 5 animals were used within the same experimental group.

insulin = assay: Serum insulin level after intraperitoneal administration (ELISA); assay type: in vivo; settings: intact rats, 3750 µg of zinc per 1 kg, 7 injections every other day
Procedure: The current dose was calculated by zinc.
The optical density was measured at 492 nm.

[1] = Accumulation of metals in liver and kidney tissues after intraperitoneal administration; assay type: in vivo, rats; settings: day 1 and day 7 after discontinuation of the substances
Procedure: The total kidney, liver and muscle homogenates were prepared as follows. Organ excision and homogenization were carried out at a temperature of 1-4°C. Homogenization of tissues was carried out in 50 mM Tris-HCl buffer (pH 7.4) which contained 140 mM NaCl, 1 mM EDTA. The volume of the used buffer in ml was 5 times larger than the mass of isolated organs in grams. The isolated liver was perfused with chilled saline (0.9% NaCl) via the portal vein using a syringe. The minced liver was transferred to a homogenizer with a finely ground Teflon pestle and homogenized in chilled buffer. An isolated pair of kidneys was perfused with chilled saline, released from adipose tissue and minced with scissors. The minced tissue was transferred to a homogenizer with a finely ground Teflon pestle and homogenized in chilled buffer. The total kidney and liver homogenates were centrifuged at 600 g for 15 minutes. The liquid was decanted after the mince settled down and was centrifuged again at 15,000 g for 15 minutes. These two procedures allowed us to get rid of nuclear and mitochondrial debris. Aliquots of the prepared homogenates were frozen in nitrogen (Rybalchenko V.K., Koganov M.M. Structure and function of membrane 1988. - 312 pp).

lipid metabolism = assay: Serum triglycerides, cholesterol and free fatty acids in obesity model; assay type: in vivo, rats; settings: high-fat diet, 2.25 mg/ml zinc aspartate intragastrically in 2 ml
[2] = system: products of oxidative modification of proteins; assay: Serum levels of products of oxidative modification of proteins in obesity model; assay type: in vivo, rats; settings: DIO+zinc: high-fat diet, intragastrically every third day
Procedure: (§1) Animal serum was prepared from whole blood. […] Samples were centrifuged for 15 min at 2500 g.
Proteins were precipitated by adding a 20% TCA solution.

[3] = system: pro- and anti-inflammatory cytokines; assay: Serum cytokine profile in obesity model (immunoenzyme method); assay type: in vivo, rats; settings: intragastrically every third day
Procedure: as §1

[4] = system: pro- and anti-inflammatory cytokines; assay: Cytokine profile in adipose tissue in obesity model (immunoenzyme method); assay type: in vivo, rats; settings: intragastrically every third day
alkaline phosphatase = assay: Serum alkaline phosphatase activity in obesity model; assay type: in vivo; settings: high-fat diet rats treated
Excerpt: (§2) Test kit // Pliva-Lachema Diagnostika. - 2008.
The alkaline phosphatase activity was expressed in relative units.

[5] = Serum albumin in obesity model; assay type: in vivo, rats; settings: obese animals treated
Excerpt: as §2

[6] = Serum glucose concentration in obesity model; assay type: in vivo, rats; settings: intragastrically every third day
Excerpt: The glucose concentration was expressed in mmol/L.

pancreas = assay: Morpho-functional analysis of pancreatic tissue in obesity model; assay type: in vivo, rats
Excerpt: After fixation, the pieces were rinsed in tap water. Then the material was dehydrated.
Dried preparations were stained with hematoxylin and eosin.

[7] = system: peripheral serotonergic system (duodenum); assay: Indicators of the peripheral serotonergic system in duodenal homogenate, obesity model; assay type: in vivo, rats; settings: intragastrically every third day
Excerpt: (§3) The tissue : buffer ratio was 1:10.
(§4) The samples were reprecipitated by centrifugation. […]
(§5) The supernatant was used in further studies.

[8] = system: tryptophan, serotonin, monoamine oxidase; assay: Serum tryptophan, serotonin and monoamine oxidase activity, obesity model; assay type: in vivo, rats; settings: intragastrically every third day
Procedure: as §1
The samples were reprecipitated by centrifugation.
University. Medicine. - 2000. - 1, No. 494. - P. 40-43.

[9] = system: central serotonergic system (brain); assay: Indicators of the central serotonergic system in brain homogenate, obesity model; assay type: in vivo, rats; settings: intragastrically every third day
Excerpt: as §3, §4, §5

superoxide dismutase = assay: Serum superoxide dismutase activity, obesity model; assay type: in vivo, rats; settings: DIO+zinc: high-fat diet, intragastrically every third day
catalase = assay: Serum catalase activity, obesity model; assay type: in vivo, rats; settings: DIO+zinc: high-fat diet, intragastrically every third day
Excerpt: Korolyuk M.A. et al., Lab. Business. - 1988. - No. 1. - P. 44-67.

[10] = Body weight after intraperitoneal administration; assay type: in vivo; settings: intact rats, 3750 µg of zinc per 1 kg, 7 injections every other day
islets of Langerhans = assay: Area of islets of Langerhans after intraperitoneal administration (microscopy); assay type: in vivo; settings: intact rats, 3750 µg of zinc per 1 kg, day 7 after the last administration
liver = assay: Morpho-functional analysis of liver tissue (hepatocyte morphometry, fibrosis) in obesity model; assay type: in vivo, rats; settings: Van Gieson's staining
[11] = Anthropometric values, amount and calorie content of food in high-fat diet induced obesity; settings: 4.5 mg zinc aspartate intragastrically every third day; for BMI: week 10

accumulation of zinc in the kidney and liver tissues [1]: significantly increased
SMILES: CC(=O)[O-].CC(=O)[O-].[Zn+2] [Zn acetate, Zn(CH3COO)2, reference compound]
glucose levels in the glucose tolerance test compared with the control group (Glucose tolerance test): also dropped, though not so strongly | Glucose, 0 min (1 h after effector administration) (Glucose tolerance test; individual animals, dose: 5 mg/kg in a volume of 2 ml, fast overnight, 5 mg/kg): 4.6 and 5.2 (2×) and 4.9 and 5.1 | Glucose, 60 min (1 h after glucose administration) (Glucose tolerance test; individual animals, dose: 5 mg/kg in a volume of 2 ml, glucose 3 g/kg body weight in 2 ml, 5 mg/kg): 7.2 (2×) and 6.9 and 7.3 and 6.8 | serum insulin levels at day 7 after the withdrawal (insulin): drop in the insulin levels to the value of those of intact/control animals | serum insulin levels on the first day after the drug withdrawal (insulin): significant increase

SMILES: N[C@@H](CC(=O)[O-])C(=O)[O-].[Zn+2] [^64Zne, zinc aspartate]
glucose levels in the glucose tolerance test compared with the control group (Glucose tolerance test; listed as zinc isotope): drop in glucose concentration; also recorded: decrease in glucose levels | glucose levels in the glucose tolerance test compared with the control group (Glucose tolerance test; listed as zinc isotope ^64Zn): significant decrease in glucose levels | levels of triglycerides, cholesterol and free fatty acids in the serum (lipid metabolism): almost at the same level as in the control group | Aldehyde-dinitrophenyl-hydrazones [2]: 0.253±0.012 nmol/mg protein | Ketone-dinitrophenyl-hydrazones [2]: 0.200±0.024 nmol/mg protein | IFN-γ level ([3]; C+zinc: standard diet): 4.6±0.6 RU/mg protein | IL-1 level ([3]; C+zinc: standard diet): 3.5±0.7 RU/mg protein | IL-4 level ([3]; C+zinc: standard diet): 4.6±0.8 RU/mg protein | IL-6 level ([3]; C+zinc: standard diet): 4.3±0.2 RU/mg protein | IL-10 level ([3]; C+zinc: standard diet): 4.1±0.5 RU/mg protein | IL-12 level ([3]; C+zinc: standard diet): 0.3±0.04 RU/mg protein | TGF level ([3]; C+zinc: standard diet): 4.1±0.4 RU/mg protein | IFN-γ level ([3]; DIO+zinc: high-fat diet): 4.1±1.2 RU/mg protein | IL-1 level ([3]; DIO+zinc: high-fat diet): 4.2±0.4 RU/mg protein | IL-4 level ([3]; DIO+zinc: high-fat diet): 5.6±1.6 RU/mg protein | IL-6 level ([3]; DIO+zinc: high-fat diet): 5.1±0.4 RU/mg protein | IL-10 level ([3]; DIO+zinc: high-fat diet): 6.8±1.1 # RU/mg protein | IL-12 level ([3]; DIO+zinc: high-fat diet): 2.4±0.06 RU/mg protein | TGF level ([3]; DIO+zinc: high-fat diet): 5.7±0.3 # RU/mg protein | TGF level ([3]; DIO+zinc: high-fat diet, listed as Zn-64 stable isotope in aspartate form): 5.7±0.3 RU/mg protein | IFN-γ level ([4]; C+zinc: standard diet): 5.0±0.8 RU/mg protein | IL-1 level ([4]; C+zinc: standard diet): 4.9±1.7 RU/mg protein | IL-4 level ([4]; C+zinc: standard diet): 5.0±0.4 RU/mg protein | IL-6 level ([4]; C+zinc: standard diet): 5.4±0.3 RU/mg protein | IL-10 level ([4]; C+zinc: standard diet): 4.9±0.2 RU/mg protein | IL-12 level ([4]; C+zinc: standard diet): 1.0±0.03 RU/mg protein | TGF level ([4]; C+zinc: standard diet): 5.1±0.6 RU/mg protein | IFN-γ level ([4]; DIO+zinc: high-fat diet): 4.9±0.8 RU/mg protein | IL-1 level ([4]; DIO+zinc: high-fat diet): 5.8±1.8 RU/mg protein | IL-4 level ([4]; DIO+zinc: high-fat diet): 5.1±1.2 RU/mg protein | IL-6 level ([4]; DIO+zinc: high-fat diet): 6.1±0.7 RU/mg protein | IL-10 level ([4]; DIO+zinc: high-fat diet): 5.8±0.8 RU/mg protein | IL-12 level ([4]; DIO+zinc: high-fat diet): 1.99±0.01 RU/mg protein | TGF level ([4]; DIO+zinc: high-fat diet): 5.2±0.9 RU/mg protein | alkaline phosphatase activity (alkaline phosphatase): higher than both in the group of diet-induced obesity models and in the control group | effect on albumin values [5]: no effect | Glucose levels ([6]; C+zinc: standard diet): 4.7 ± 0.2 mmol/L | Glucose levels ([6]; DIO+zinc: high-fat diet): 4.9 ± 0.2 mmol/L | morphology of exocrine cells of the pancreas (pancreas; rats fed a standard diet, hematoxylin & eosin): did not change | cross-sectional surface area of the islets of Langerhans, increase compared with the obesity group (pancreas; rats having obesity): 43% | cross-sectional surface area of the islets of Langerhans, lower than the control value (pancreas; rats having obesity): 29% | cross-sectional surface area of the islets of Langerhans, decrease compared with the control group (pancreas; rats that ate a standard diet): 39% | Indoleamine dioxygenase activity ([7]; C+zinc: standard diet): 2150 ± 231 µmol/mg protein | Monoamine oxidase activity ([7]; C+zinc: standard diet): 3.82 ±0.07 RU/mg protein | Serotonin ([7]; C+zinc: standard diet): 7.41 ± 0.54 µg/g | Tryptophan ([7]; C+zinc: standard diet): 154.7 ± 13.6 µg/g | Tryptophan decarboxylase activity ([7]; C+zinc: standard diet): 0.79 ± 0.22 RU/mg protein | Tryptophan hydroxylase activity ([7]; C+zinc: standard diet): 375 ± 61 RU/mg protein | Indoleamine dioxygenase activity ([7]; DIO+zinc: high-fat diet): 1768 ± 274 µmol/mg protein | Monoamine oxidase activity ([7]; DIO+zinc: high-fat diet): 1.72 ±0.03 RU/mg protein | Serotonin ([7]; DIO+zinc: high-fat diet): 9.73 ± 0.82 µg/g | Tryptophan ([7]; DIO+zinc: high-fat diet): 89.4 ± 8.99 µg/g | Tryptophan decarboxylase activity ([7]; DIO+zinc: high-fat diet): 0.78 ± 0.19 RU/mg protein | Tryptophan hydroxylase activity ([7]; DIO+zinc: high-fat diet): 253 ± 58 RU/mg protein | Monoamine oxylase activity ([8]; C+zinc: standard diet): 2.52±0.03 RU/mg protein | Serotonin ([8]; C+zinc: standard diet): 10.16 ± 0.62 µg/g | Tryptophan ([8]; C+zinc: standard diet): 56.12 ± 7.58 µg/g | Monoamine oxylase activity ([8]; DIO+zinc: high-fat diet): 3.11±0.08 RU/mg protein | Serotonin ([8]; DIO+zinc: high-fat diet): 6.33 ± 0.51 µg/g | Tryptophan ([8]; DIO+zinc: high-fat diet): 66.65 ± 9.62 µg/g | Indoleamine dioxygenase activity ([9]; C+zinc: standard diet): 1178 ± 267 µmol/mg protein | Monoamine oxidase activity ([9]; C+zinc: standard diet): 0.91 ±0.06 RU/mg protein | Serotonin ([9]; C+zinc: standard diet): 25.51 ± 2.71 µg/g | Tryptophan ([9]; C+zinc: standard diet): 87.71 ± 3.41 µg/g | Tryptophan decarboxylase activity ([9]; C+zinc: standard diet): 1.63 ± 0.41 RU/mg protein | Tryptophan hydroxylase activity ([9]; C+zinc: standard diet): 291 ± 29 RU/mg protein | Indoleamine dioxygenase activity ([9]; DIO+zinc: high-fat diet): 2007 ± 175 µmol/mg protein | Monoamine oxidase activity ([9]; DIO+zinc: high-fat diet): 0.99±0.08 RU/mg protein | Serotonin ([9]; DIO+zinc: high-fat diet): 20.1 ± 3.21 µg/g | Tryptophan ([9]; DIO+zinc: high-fat diet): 31.56 ± 2.14 µg/g | Tryptophan decarboxylase activity ([9]; DIO+zinc: high-fat diet): 1.86 ± 0.37 RU/mg protein | Tryptophan hydroxylase activity ([9]; DIO+zinc: high-fat diet): 286 ± 17 RU/mg protein | Superoxide dismutase activity (superoxide dismutase): 4.5±0.43 # RU/ min per mg protein | Catalase activity (catalase): 0.48±0.02 µmol H2O2/min per mg protein | serum insulin levels at day 7 after the withdrawal (insulin): increased | serum insulin levels on the first day after the drug withdrawal (insulin): slightly higher than in the group of intact animals | serum insulin levels at day 7 after the withdrawal (insulin; listed as zinc isotope): significant increase | body weight of rats [10]: significant increase | area of islets of Langerhans compared to the control group and the zinc acetate group (islets of Langerhans): significant increase | accumulation of zinc in the kidney and liver tissues [1]: significantly increased | area of collagen fiber deposits, increased by a factor versus the control group (liver; obesity group treated): 6 | increase in the area of deposition of collagen fibers (liver; rats eating a standard diet): 2 fold | Amount of food consumed ([11]; C+zinc: standard diet): 32 g/day | Calorie content of food ([11]; C+zinc: standard diet): 490 kJ/day | Weight gain as of the end of the experiment ([11]; C+zinc: standard diet): 59% | BMI ([11]; C+zinc: standard diet): 0.59 g/cm^2 | Amount of food consumed ([11]; DIO+zinc: high-fat diet): 29 g/day | Calorie content of food ([11]; DIO+zinc: high-fat diet): 823 kJ/day | Weight gain as of the end of the experiment ([11]; DIO+zinc: high-fat diet): 62% | BMI ([11]; DIO+zinc: high-fat diet): 0.65 g/cm^2
